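How tested: cells in 96-well plates exposed to compound for 48 hours at five concentrations. TGI denotes the concentration required for complete inhibition of growth.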
Experiments:
Assay in all cases: growth of human tumour cells (NCI), 48 h
[1] = tested on: OVCAR-3 ovarian
[2] = tested on: HT29 colon
[3] = tested on: NCI-H226 lung
[4] = tested on: PC-3 prostate
[5] = tested on: HL-60(TB) leukemia
[6] = tested on: MDA-N
[7] = tested on: COLO 205 colon
[8] = tested on: SK-MEL-5 melanoma
[9] = tested on: SW-620 colon
[10] = tested on: IGROV1 ovarian
[11] = tested on: SF-539 CNS
[12] = tested on: CCRF-CEM leukemia
[13] = tested on: HOP-62 NSCLC
[14] = tested on: SK-MEL-28 melanoma
[15] = tested on: HS 578T breast
[16] = tested on: OVCAR-4 ovarian
[17] = tested on: MDA-MB-231 breast
[18] = tested on: LOX IMVI melanoma

Compound `CCCCC1=NNC(=O)C1` has a TGI [1] greater than 100 µM, a TGI [2] greater than 100 µM and a TGI [3] greater than 100 µM. For the same compound, the TGI [4] was greater than 100 µM, the TGI [5] was greater than 100 µM and the TGI [6] was greater than 100 µM. The TGI [7] was greater than 100 µM, the TGI [8] was greater than 100 µM and the TGI [9] was greater than 100 µM. For the same compound, the TGI [10] was greater than 100 µM, the TGI [11] was greater than 100 µM and the TGI [12] was greater than 100 µM. It also gave a TGI [13] greater than 100 µM, a TGI [14] greater than 100 µM and a TGI [15] greater than 100 µM. For the same compound, the TGI [16] was greater than 100 µM and the TGI [17] was greater than 100 µM.

`Nc1ncnc2c1ccn2C/C=C\CO` showed a TGI [1] greater than 100 µM, a TGI [2] greater than 100 µM and a TGI [4] greater than 100 µM. The TGI [5] was greater than 100 µM, the TGI [6] was greater than 100 µM and the TGI [7] was greater than 100 µM. The TGI [8] was greater than 100 µM, the TGI [9] was greater than 100 µM and the TGI [10] was greater than 100 µM. The TGI [11] was greater than 100 µM, the TGI [12] was greater than 100 µM and the TGI [13] was greater than 100 µM. It also gave a TGI [18] greater than 100 µM, a TGI [14] greater than 100 µM and a TGI [15] greater than 100 µM. The TGI [16] was greater than 100 µM and the TGI [17] was greater than 100 µM.

`Nc1ccc(Oc2ccc(C34CC5CC6C3CC3CC4C(C5)C6(c4ccc(Oc5ccc(N)cc5)cc4)C3)cc2)cc1` gave a TGI [1] of 29.7 µM, a TGI [2] greater than 100 µM and a TGI [3] of 71.4 µM. The TGI [4] was 51.7 µM, the TGI [5] was 22 µM and the TGI [6] was 19.1 µM. For the same compound, the TGI [8] was 5.27 µM, the TGI [9] was greater than 100 µM and the TGI [10] was greater than 78.8 µM. It also gave a TGI [12] greater than 63.6 µM, a TGI [13] of 53.6 µM and a TGI [18] greater than 76.1 µM. The TGI [14] was greater than 81.2 µM, the TGI [15] was greater than 67.5 µM and the TGI [16] was greater than 100 µM. The TGI [17] was 65.7 µM.

Compound `OC1(C(F)(F)F)OCCN=C1C(F)(F)F` (stereo not given) has a TGI [1] greater than 100 µM, a TGI [2] greater than 100 µM and a TGI [3] greater than 100 µM. The TGI [4] was greater than 100 µM, the TGI [5] was greater than 100 µM and the TGI [6] was greater than 100 µM. It also gave a TGI [7] greater than 100 µM, a TGI [8] greater than 100 µM and a TGI [9] greater than 100 µM. For the same compound, the TGI [10] was greater than 100 µM, the TGI [12] was greater than 100 µM and the TGI [13] was greater than 100 µM. The TGI [18] was greater than 100 µM, the TGI [14] was greater than 100 µM and the TGI [15] was 81.3 µM. For the same compound, the TGI [16] was greater than 100 µM and the TGI [17] was greater than 100 µM.

`OCC1OC(c2cccc3cc(O)c(O)cc23)CC1O` (stereo not given) gave a TGI [1] greater than 100 µM, a TGI [2] greater than 100 µM and a TGI [3] greater than 100 µM. The TGI [4] was greater than 100 µM, the TGI [5] was greater than 100 µM and the TGI [6] was greater than 100 µM. The TGI [9] was greater than 100 µM, the TGI [10] was greater than 100 µM and the TGI [11] was greater than 100 µM. The TGI [13] was greater than 100 µM, the TGI [18] was greater than 100 µM and the TGI [14] was greater than 100 µM. The TGI [15] was greater than 100 µM, the TGI [16] was greater than 100 µM and the TGI [17] was greater than 100 µM.

Compound `O=C1NC(NNc2ccccc2)=N/C1=C\c1ccccc1O` has a TGI [1] greater than 100 µM, a TGI [2] greater than 100 µM and a TGI [3] greater than 100 µM. It also gave a TGI [4] of 82 µM, a TGI [5] greater than 100 µM and a TGI [6] greater than 100 µM. It also gave a TGI [7] greater than 100 µM, a TGI [9] greater than 100 µM and a TGI [10] greater than 100 µM. For the same compound, the TGI [11] was greater than 100 µM, the TGI [13] was greater than 100 µM and the TGI [18] was greater than 100 µM. For the same compound, the TGI [14] was greater than 100 µM, the TGI [15] was greater than 100 µM and the TGI [16] was greater than 100 µM. The TGI [17] was greater than 100 µM.

Compound `CC(C)(C)[Si](C)(C)OCC1OC(n2ccc(N)nc2=O)C(O[Si](C)(C)C(C)(C)C)C1O[Si](C)(C)C(C)(C)C` (stereo not given) has a TGI [1] of 3.3 µM, a TGI [2] of 3.02 µM and a TGI [3] of 2.86 µM. The TGI [4] was 3.65 µM, the TGI [6] was 13 µM and the TGI [7] was 9.84 µM. The TGI [8] was 3.43 µM, the TGI [9] was 2.93 µM and the TGI [10] was 3.94 µM. For the same compound, the TGI [13] was 4.85 µM, the TGI [18] was 3.23 µM and the TGI [15] was 7.89 µM. It also gave a TGI [16] of 2.21 µM and a TGI [17] of 22.7 µM.

`CN(CC(=O)O)c1ncc2c(n1)-c1ccccc1SC2` gave a TGI [2] greater than 100 µM, a TGI [4] greater than 100 µM and a TGI [5] greater than 100 µM. For the same compound, the TGI [6] was greater than 100 µM, the TGI [7] was greater than 100 µM and the TGI [8] was greater than 100 µM. The TGI [9] was greater than 100 µM, the TGI [10] was greater than 100 µM and the TGI [11] was greater than 100 µM. For the same compound, the TGI [12] was greater than 100 µM, the TGI [18] was greater than 100 µM and the TGI [14] was greater than 100 µM. The TGI [15] was greater than 100 µM, the TGI [16] was greater than 100 µM and the TGI [17] was greater than 100 µM.

`OCCCCCCCCCCCOc1ccc(C2OCC3(CO2)COC(c2ccc(OCCCCCCCCCCCO)cc2)OC3)cc1` (stereo not given) gave a TGI [1] greater than 50 µM, a TGI [2] greater than 50 µM and a TGI [3] greater than 50 µM. It also gave a TGI [4] greater than 50 µM, a TGI [6] greater than 50 µM and a TGI [7] greater than 50 µM. For the same compound, the TGI [8] was greater than 50 µM, the TGI [9] was greater than 50 µM and the TGI [10] was greater than 50 µM. The TGI [11] was greater than 50 µM, the TGI [13] was greater than 50 µM and the TGI [18] was greater than 50 µM. It also gave a TGI [14] greater than 50 µM, a TGI [15] greater than 50 µM and a TGI [16] greater than 50 µM. It also gave a TGI [17] greater than 50 µM.

Compound `CC(C)(Cl)C(Br)CCC(C)(Cl)C(Br)CBr` (stereo not given) has a TGI [1] of 41.9 µM, a TGI [2] of 46.8 µM and a TGI [3] of 60.6 µM. The TGI [4] was 71 µM, the TGI [5] was 35.4 µM and the TGI [6] was 81.9 µM. For the same compound, the TGI [7] was 33.8 µM, the TGI [8] was 34.5 µM and the TGI [9] was 95.5 µM. The TGI [10] was 65.4 µM, the TGI [11] was 49.7 µM and the TGI [12] was 76.9 µM. For the same compound, the TGI [13] was 57.3 µM, the TGI [14] was 79.7 µM and the TGI [15] was 82.9 µM. The TGI [16] was 87.3 µM and the TGI [17] was 47.2 µM.

With `CC1(C)CC(=O)c2[nH]c3ccccc3c2CC(=O)NCCc2cn1cn2` the TGI [1] was greater than 100 µM, the TGI [2] was greater than 100 µM and the TGI [3] was greater than 100 µM. For the same compound, the TGI [4] was greater than 100 µM, the TGI [6] was greater than 100 µM and the TGI [7] was greater than 100 µM. The TGI [8] was greater than 100 µM, the TGI [9] was greater than 100 µM and the TGI [10] was greater than 100 µM. The TGI [11] was greater than 100 µM, the TGI [18] was greater than 100 µM and the TGI [14] was greater than 100 µM. It also gave a TGI [15] greater than 100 µM, a TGI [16] greater than 100 µM and a TGI [17] greater than 100 µM.
